Data from US20260297060A1, “COMPOUNDS FOR THE DEGRADATION OF MUTANT BRAF” (C4 THERAPEUTICS, INC., priority 2023, published 2026).

System: A375 human melanoma xenografts
Experiment: In vivo therapeutic efficacy in A375 human melanoma xenografts (tumor volume, T/C, TGI), Example 14
Parameters: species or system human tumor in female BALB/c nude mice
Protocol: Agents were tested in the A375 human melanoma xenografts. Compound 26 and Compound 141 were administered to BALB/c nude mice bearing A375 tumors from PG-DO and dosed via PO twice a day (BID) or third a day (TIP) or dosed P daily (QD) from PG-D. Dabrafenib was administered to BALB/c nude mice bearing A375 tumors from PG-D1 and dosed via P daily (QD). Compound 26 was dosed at 1.5 mg/kg (QD), 2 mg/kg (TID), 3 mg/kg (BID), 6 mg/kg (QD) and 10 mg/kg (BID) for 21 days. Compound 141 was dosed at 0.75 mg/kg (BID), 1 mg/kg (TID), 1.5 mg/kg (BID), 3 mg/kg (QD) and 5 mg/kg (BID) for 21 days. Dabrafenib was dosed at 100 mg/kg for 21 days. This study was non-GLP.
One hundred and thirty-eight female BALB/c nude Mus Musculus mice procured from Shanghai Lingchang Biological Science and Technology Co., LTD between the ages of six to eight weeks and with body weight between eighteen and twenty-two grams were used for the study. A spare mouse was also procured.
The A375 tumor cells were maintained in vitro in DMEM medium supplemented with 10% fetal bovine serum and 1% Penicillin-Streptomycin at 37° C. in an atmosphere of 5% CO2 in air. The tumor cells were routinely sub-cultured twice weekly. The cells growing in an exponential growth phase were harvested and counted for tumor inoculation.
Each mouse was inoculated subcutaneously at the right flank with A375 cells (5×10^6) in 0.2 mL of PBS supplemented with Matrigel (PBS: Matrigel=1:1) for tumor development. Animals were grouped for efficacy study on day 15 after tumor inoculation when the average tumor volume reached 220 mm^3. The test articles administration and the animal numbers in each group are shown in the above experimental Table 75.
At the time of routine monitoring, the animals were checked daily for any effects of tumor growth and treatments on normal behavior such as mobility, food and water consumption (by looking only), body weight gain/loss (body weights were measured twice weekly), eye/hair matting and any other abnormal effect as stated in the protocol. Death and observed clinical signs were recorded on the basis of the numbers of animals within each subset.
Prior to the onset of drug treatment, mice were measured for tumor size in two dimensions using a caliper, and the tumor volume (mm^3) was calculated using formula V=0.5 a×b^2 where a and b are the long and short diameters of the tumor in mm, respectively. Mice were randomized into different treatment groups based on the tumor volume.
The major endpoint was to see if the tumor growth could be delayed or mice could be cured. The tumor size was then used for calculations of T/C value. The T/C value (in percent) is an indication of antitumor effectiveness; T and C are the mean volumes of the treated and control groups, respectively on specified day.
TGI was calculated for each group using the formula: TGI (%)=[1−(Ti−T0)/(Ci−C0)]×100; Ti is the average tumor volume of a treatment group on a given day, T0 is the average tumor volume of the treatment group on the day of treatment start, Ci is the average tumor volume of the vehicle control group on the same day with Ti, and C0 is the average tumor volume of the vehicle group on the day of treatment start.
A one-way ANOVA followed by Dunnett's multiple comparison test was performed to compare tumor volume among vehicle group (Group 1) and treatment groups (Group 2-Group 12). All data were analyzed using GraphPad Prism, ns indicates p>0.05, * indicates p<0.05, ** indicates p<0.01, *** indicates p<0.001 and **** indicates p<0.0001.
Tumor growth inhibition of Compound 26, Compound 141 and dabrafenib in the treatment of female BALB/c nude mice bearing A375 xenografts was calculated based on tumor volume measured on […]. TGI and T/C were calculated respectively and the data are detailed in Table 82.

[1] = 2 mg/kg p.o. TID × 21 days, PG-D21

Compound: CCN(C)S(=O)(=O)Nc1ccc(F)c(Oc2ccc3ncn([C@H]4COC5(CCN(C6CC7(C6)CN(c6cc8c(cc6F)c(N6CCC(=O)NC6=O)nn8C)C7)CC5)C4)c(=O)c3c2)c1C#N [Compound 26, (3R)-3-[6-[2-cyano-3-[[ethyl(methyl)sulfamoyl]amino]-6-fluoro-phenoxy]-4-oxo-quinazolin-3-yl]-8-[2-[3-(2,4-dioxohexahydropyrimidin-1-yl)-5-fluoro-1-methyl-indazol-6-yl]-2-azaspiro[3.3]heptan-6-yl]-1-oxa-8-azaspiro[4.5]decane]
- Tumor volume (1.5 mg/kg p.o. BID x 21 days, day 0, mean ± SEM): 220 ± 16 mm^3
- Tumor volume (1.5 mg/kg p.o. BID x 21 days, day 4, mean ± SEM): 249 ± 21 mm^3
- Tumor volume (1.5 mg/kg p.o. BID x 21 days, day 7, mean ± SEM): 227 ± 23 mm^3
- Tumor volume (1.5 mg/kg p.o. BID x 21 days, day 11, mean ± SEM): 210 ± 26 mm^3
- Tumor volume (1.5 mg/kg p.o. BID x 21 days, day 14, mean ± SEM): 204 ± 26 mm^3
- Tumor volume (1.5 mg/kg p.o. BID x 21 days, day 18, mean ± SEM): 271 ± 44 mm^3
- Tumor volume (1.5 mg/kg p.o. BID x 21 days, day 21, mean ± SEM): 400 ± 70 mm^3
- Tumor volume (1.5 mg/kg p.o. BID x 21 days, day 25 (dosing-free regrowth), mean ± SEM): 730 ± 94 mm^3
- Tumor volume (1.5 mg/kg p.o. BID x 21 days, day 28 (dosing-free regrowth), mean ± SEM): 1006 ± 99 mm^3
- Tumor volume (1.5 mg/kg p.o. BID x 21 days, day 32 (dosing-free regrowth), mean ± SEM): 1224 ± 99 mm^3
- Tumor volume (1.5 mg/kg p.o. BID x 21 days, day 35 (dosing-free regrowth), mean ± SEM): 1497 ± 94 mm^3
- Tumor volume (1.5 mg/kg p.o. BID x 21 days, day 39 (dosing-free regrowth), mean ± SEM): 1978 ± 148 mm^3
- Tumor volume (1.5 mg/kg p.o. BID x 21 days, day 42 (dosing-free regrowth), mean ± SEM): 2420 ± 205 mm^3
- Tumor volume (1.5 mg/kg p.o. BID x 21 days, day 46 (dosing-free regrowth), mean ± SEM): 2759 ± 274 mm^3
- Tumor volume (1.5 mg/kg p.o. BID x 21 days, day 49 (dosing-free regrowth), mean ± SEM): 2514 ± 268 mm^3
- Tumor volume (1.5 mg/kg p.o. BID x 21 days, day 53 (dosing-free regrowth), mean ± SEM): 3087 ± 444 mm^3
- Tumor volume (1.5 mg/kg p.o. BID x 21 days, day 56 (dosing-free regrowth)): 3153 mm^3
- Tumor volume (2 mg/kg p.o. TID x 21 days, day 0, mean ± SEM): 220 ± 15 mm^3
- Tumor volume (2 mg/kg p.o. TID x 21 days, day 4, mean ± SEM): 172 ± 13 mm^3
- Tumor volume (2 mg/kg p.o. TID x 21 days, day 7, mean ± SEM): 99 ± 9 mm^3
- Tumor volume (2 mg/kg p.o. TID x 21 days, day 11, mean ± SEM): 68 ± 8 mm^3
- Tumor volume (2 mg/kg p.o. TID x 21 days, day 14, mean ± SEM): 51 ± 7 mm^3
- Tumor volume (2 mg/kg p.o. TID x 21 days, day 18, mean ± SEM): 36 ± 4 mm^3
- Tumor volume (2 mg/kg p.o. TID x 21 days, day 21, mean ± SEM): 41 ± 5 mm^3
- Tumor volume (2 mg/kg p.o. TID x 21 days, day 25 (dosing-free regrowth), mean ± SEM): 85 ± 16 mm^3
- Tumor volume (2 mg/kg p.o. TID x 21 days, day 28 (dosing-free regrowth), mean ± SEM): 156 ± 32 mm^3
- Tumor volume (2 mg/kg p.o. TID x 21 days, day 32 (dosing-free regrowth), mean ± SEM): 292 ± 57 mm^3
- Tumor volume (2 mg/kg p.o. TID x 21 days, day 35 (dosing-free regrowth), mean ± SEM): 441 ± 86 mm^3
- Tumor volume (2 mg/kg p.o. TID x 21 days, day 39 (dosing-free regrowth), mean ± SEM): 754 ± 156 mm^3
- Tumor volume (2 mg/kg p.o. TID x 21 days, day 42 (dosing-free regrowth), mean ± SEM): 980 ± 198 mm^3
- Tumor volume (2 mg/kg p.o. TID x 21 days, day 46 (dosing-free regrowth), mean ± SEM): 1320 ± 265 mm^3
- Tumor volume (2 mg/kg p.o. TID x 21 days, day 49 (dosing-free regrowth), mean ± SEM): 1646 ± 332 mm^3
- Tumor volume (2 mg/kg p.o. TID x 21 days, day 53 (dosing-free regrowth), mean ± SEM): 2216 ± 435 mm^3
- Tumor volume (2 mg/kg p.o. TID x 21 days, day 56 (dosing-free regrowth), mean ± SEM): 2482 ± 579 mm^3
- Tumor Size on PG-D21 (Mean ± SEM) (2 mg/kg p.o. TID × 21 days): 41 ± 5 mm^3
- T/C [1]: 2.2%
- TGI [1]: 110.8%
- Tumor volume (3 mg/kg p.o. BID x 21 days, day 0, mean ± SEM): 220 ± 15 mm^3
- Tumor volume (3 mg/kg p.o. BID x 21 days, day 4, mean ± SEM): 219 ± 16 mm^3
- Tumor volume (3 mg/kg p.o. BID x 21 days, day 7, mean ± SEM): 136 ± 11 mm^3
- Tumor volume (3 mg/kg p.o. BID x 21 days, day 11, mean ± SEM): 83 ± 6 mm^3
- Tumor volume (3 mg/kg p.o. BID x 21 days, day 14, mean ± SEM): 52 ± 5 mm^3
- Tumor volume (3 mg/kg p.o. BID x 21 days, day 18, mean ± SEM): 45 ± 7 mm^3
- Tumor volume (3 mg/kg p.o. BID x 21 days, day 21, mean ± SEM): 48 ± 9 mm^3
- Tumor volume (3 mg/kg p.o. BID x 21 days, day 25 (dosing-free regrowth), mean ± SEM): 129 ± 75 mm^3
- Tumor volume (3 mg/kg p.o. BID x 21 days, day 28 (dosing-free regrowth), mean ± SEM): 258 ± 165 mm^3
- Tumor volume (3 mg/kg p.o. BID x 21 days, day 32 (dosing-free regrowth), mean ± SEM): 423 ± 234 mm^3
- Tumor volume (3 mg/kg p.o. BID x 21 days, day 35 (dosing-free regrowth), mean ± SEM): 578 ± 289 mm^3
- Tumor volume (3 mg/kg p.o. BID x 21 days, day 39 (dosing-free regrowth), mean ± SEM): 878 ± 311 mm^3
- Tumor volume (3 mg/kg p.o. BID x 21 days, day 42 (dosing-free regrowth), mean ± SEM): 1129 ± 390 mm^3
